Results: patent publication US8207154B2, “Catatonic bacteriochlorophyll derivatives” (Yeda Research and Development Co., Ltd., priority 2005, dated 2012)
Where two headings read alike, the source gives them in different places.

Tests used:
[1] = Octanol/water partition ratio; type: physicochemical
Excerpt: Optical absorption in water, λ (relative absorption): 753 (1.00), 519 (0.30), 354 (1.25) nm. Octanol/water partition ratio is 40/60. ESI-MS (+): 413.62 ([M-2×citrate]/2). Octanol/water partition ratio is 50/50. ESI-MS (+): 455.89 ([M-2×citrate]/2). Octanol/water partition ratio is 75/25.

[2] = test system: H5V cells; assay: Phototoxicity assay (PDT efficacy at two incubation times), neutral red survival; type: cell-based, mouse; settings: then 10 min illumination, 12 J/cm^2
Experimental: H5V cells (40×10^3/well) were cultured in 96-well plates for 24 h to ˜80% confluence. To determine phototoxicity, the culture medium was replaced with 100 μl/well medium, in the absence or presence of 10^−8 to 10^−6 M sensitizer, and incubated in the dark for 15 min or 3 h in the culture incubator. The plates (PDT group) were then placed in the light field at room temperature and illuminated from the bottom for 10 min (800>λ>650 nm, 12 J/cm^2). After illumination, the medium was changed to fresh culture medium. The cultures were then placed in the culture incubator and cell survival was determined 24 h later, using the neutral red survival assay described below.
Following 24 h post PDT the culture medium in the wells was replaced with 100 μl fresh medium containing 40 μg/ml neutral red. The plate was incubated for 1.5 h in a dark culture incubator. The medium was aspirated and the cells washed with 100 μl of solution containing 1% CaCl2 and 0.5% formaldehyde, which removes the unincorporated dye and fixes the cells to the substratum. The dye was then extracted from the cells into the supernatant upon addition of 100 μl 1% glacial acetic acid in 50% ethanol. After 1-2 min at room temperature, the optical density of the wells was determined in a microplate spectrophotometer using a 570 nm filter. After subtraction of assay blanks, net optical density was computed as the average value of triplicate determinations. Cell survival was calculated as the percent of the dye accumulated in the untreated control. To determine cell survival data was plotted against sensitizer concentration. These curves were then used to calculated LD50 values.
Following synthesis, the compounds described in the Examples 23 to 75 above were purified, divided into equal aliquots and lyophilized for storage (desiccated at −20° C.). The exact material content was determined by HPLC-diode array detection, and the PDT efficacy was evaluated at two incubation times as described in the experimental section.

[3] = target: St. albus; assay: Phototoxicity on Gram-positive bacteria, colony counting; type: cell-based; settings: 1 h incubation, illuminated 15 min at 70 mW/cm^2; read-out: Kd (phototoxicity)
Experimental: (§1) (ii) Bacterial cultures. Bacteria of strains St. albus and E. coli XL-1 were cultured in liquid LB medium (E. coli in LB containing 12.5 μg tetracyclin/ml) to a final density of OD600 nm=0.5-0.9 (1 OD=8×10^8 bacteria/ml). The bacteria were spun down (4000×g, 5 min.) and resuspended in PBS.
(§2) (b) Bacterial. To determine the photodynamic efficacy, bacteria were diluted to aliquots of 300 μl containing about 10^7 bacteria, and incubated with increasing concentrations of sensitizer in plastic test tubes in the dark for 1 h at room temperature, and then illuminated at 70 mW/cm^2 for 15 min. Samples of the treated bacteria cultures were subsequently plated at different dilutions (50-200 bacteria/plate) on LB agar and cultured for 24 h at 37° C. for determination of bacterial survival by colony counting. Triplicate determinations were conducted and representative experiments are shown.
(§3) The phototoxicity of positively-charged compound 5 was tested on Gram-positive St. albus and Gram-negative E. coli bacteria in comparison to the negatively-charged Pd 3^1-oxo-15-methoxycarbonylmethyl-Rhodobacteriochlorin 13^1-(2-sulfoethyl)amide dipotassium salt (described in PCT/IL03/00973). Bacteria were incubated with increasing concentrations of the sensitizers for 1 h and illuminated or kept in the dark. […] Gram-positive bacteria St. albus, was 100 times more sensitive to compound 5 than Gram-negative E. coli. No phototoxicity was observed when bacteria were incubated and treated with the same sensitizers' concentration range without illumination (dark controls).

[4] = test system: E. coli; assay: Phototoxicity on Gram-negative bacteria, colony counting; type: cell-based, E. coli XL-1; settings: 1 h incubation, illuminated
Experimental: as §1, §2, §3

[5] = 15 min incubation in the dark, read-out: IC50 15 min
[6] = 3 h incubation in the dark, read-out: IC50 3 hours

Compound	Octanol/water partition ratio [1]	IC50 [2, 5] [nM]	IC50 [2, 6] [nM]	phototoxic killing concentration [3] [nM]	effectiveness against Gram-negative E. coli [4]
3^1-Oxo-15-methoxycarbonylmethyl-Rhodobacteriochlorin 13^1,17^3-di(3-N^3-trimethylammoniumpropyl)amide dicitrate salt [Compound 7]	50/50	–	–	–	–
CC(=O)O.CC[C@H]1C2=NC(=Cc3c(C(C)=O)c(C)c4[n]3[Pd][n]3c(c(C)c(C(=O)NCCCCN)c3=C(CC(=O)OC)C3=NC(=C4)[C@@H](C)[C@@H]3CCC(=O)NCC(O)CO)=C2)[C@@H]1C (stereo partly drawn) [Compound 61, Palladium 3^1-oxo-15-methoxycarbonylmethyl-Rhodobacteriochlorin-13^1-(4-aminobutyl)amide-17^3-(2,3-dihydroxypropyl) amide]	–	690	210	–	–
CC(=O)O.CCNCCNC(=O)c1c(C)c2[n]3c1=C(CC(=O)OC)C1=NC(=Cc4c(C)c(C(C)=O)c([n]4[Pd]3)C=C3N=C(C=2)[C@H](CC)[C@H]3C)[C@@H](C)[C@@H]1CCC(=O)NCC(O)CO (stereo partly drawn) [Compound 63, Palladium 3^1-oxo-15-methoxycarbonylmethyl-Rhodobacteriochlorin-13^1-(2-N-ethylaminoethyl)amide-17^3-(2,3-dihydroxypropyl)amide]	–	660	210	–	–
CC(=O)O.CC[C@H]1C2=NC(=Cc3c(C(C)=O)c(C)c4[n]3[Pd][n]3c(c(C)c(C(=O)NCCCNC)c3=C(CC(=O)OC)C3=NC(=C4)[C@@H](C)[C@@H]3CCC(=O)NCC(O)CO)=C2)[C@@H]1C (stereo partly drawn) [Compound 64, Palladium 3^1-oxo-15-methoxycarbonylmethyl-Rhodobacteriochlorin-13^1-(3-N-methylaminopropyl)amide-17^3-(2,3-dihydroxypropyl)amide]	–	560	170	–	–
CC(=O)O.CC[C@H]1C2=NC(=Cc3c(C(C)=O)c(C)c4[n]3[Pd][n]3c(c(C)c(C(=O)NCCN(C)C)c3=C(CC(=O)OC)C3=NC(=C4)[C@@H](C)[C@@H]3CCC(=O)NCCCO)=C2)[C@@H]1C [Compound 66, Palladium 3^1-oxo-15-methoxycarbonylmethyl-Rhodobacteriochlorin-13^1-(2-N^2-dimethylaminoethyl)amide-17^3-(3-hydroxypropyl)amide]	–	550	200	–	–
CC(=O)O.CC[C@H]1C2=NC(=Cc3c(C(C)=O)c(C)c4[n]3[Pd][n]3c(c(C)c(C(=O)NCCN(C)C)c3=C(CC(=O)OC)C3=NC(=C4)[C@@H](C)[C@@H]3CCC(=O)NCC(C)O)=C2)[C@@H]1C (stereo partly drawn) [Compound 67, Palladium 3^1-oxo-15-methoxycarbonylmethyl-Rhodobacteriochlorin-13^1-(2-N^2-dimethylaminoethyl)amide-17^3-(2-hydroxypropyl)amide]	–	500	180	–	–
CC(=O)O.CC[C@H]1C2=NC(=Cc3c(C(C)=O)c(C)c4[n]3[Pd][n]3c(c(C)c(C(=O)NCCN(C)C)c3=C(CC(=O)OC)C3=NC(=C4)[C@@H](C)[C@@H]3CCC(=O)NC[C@H](C)O)=C2)[C@@H]1C [Compound 69, Palladium 3^1-oxo-15-methoxycarbonylmethyl-Rhodobacteriochlorin-13^1-(2-N^2-dimethylaminoethyl)amide-17^3-((S)-2-hydroxypropyl)amide]	–	500	160	–	–
CC(=O)O.CC(=O)O.CC[C@H]1C2=NC(=Cc3c(C(C)=O)c(C)c4[n]3[Pd][n]3c(c(C)c(C(=O)NCC(O)CO)c3=C(CC(=O)OC)C3=NC(=C4)[C@@H](C)[C@@H]3CCC(=O)NCCCCNc3ccccn3)=C2)[C@@H]1C (stereo partly drawn) [Compound 74, Palladium 3^1-oxo-15-methoxycarbonylmethyl-Rhodobacteriochlorin-13^1-(2,3-dihydroxypropyl)amide-17^3-(4-N-(2′-pyridyl)aminobutyl)amide]	–	740	290	–	–
CCC1C2=Cc3c(C)c(C(=O)NCCS(=O)(=O)[O-])c4[n]3[Pd][n]3c(c(C)c(C(C)=O)c3=CC(=N2)C1C)=CC1=NC(=C4CC(=O)OC)C(CCC(=O)[O-])C1C.[K+].[K+] (stereo not drawn) [Pd 3^1-oxo-15-methoxycarbonylmethyl-Rhodobacteriochlorin 13^1-(2-sulfoethyl)amide dipotassium salt, reference compound]	–	–	–	300	not against Gram-negative E. coli
Palladium 3^1-oxo-15-methoxycarbonylmethyl-Rhodobacteriochlorin-13^1-(2,3-dihydroxypropyl)amide-17^3-(3-N-(2′-pyridyl)aminopropyl)amide [Compound 73]	–	380	300	–	–
Palladium 3^1-oxo-15-methoxycarbonylmethyl-Rhodobacteriochlorin-13^1-(2-N-dimethylaminoethyl)amide-17^3-(2-hydroxy ethyl)amide [Compound 65]	–	430	220	–	–
Palladium 3^1-oxo-15-methoxycarbonylmethyl-Rhodobacteriochlorin-13^1-(2-N^2-diethylaminoethyl)amide-17^3-(2,3-dihydroxy propyl)amide [Compound 62]	–	630	190	–	–
Palladium 3^1-oxo-15-methoxycarbonylmethyl-Rhodobacteriochlorin-13^1-(2-N^2-dimethylaminoethyl)amide-17^3-(2-(2-hydroxyethylamino)ethyl)amide [Compound 70]	–	550	160	–	–
Palladium 3^1-oxo-15-methoxycarbonylmethyl-Rhodobacteriochlorin-13^1-(2-N^2-dimethylaminoethyl)amide-17^3-((R)-2-hydroxypropyl)amide [Compound 68]	–	500	160	–	–
Palladium 3^1-oxo-15-methoxycarbonylmethyl-Rhodobacteriochlorin-13^1-(2-N^2-dimethylaminoethyl)amide-17^3-(glycosyl) amide [Compound 75]	–	500	160	–	–
Palladium 3^1-oxo-15-methoxycarbonylmethyl-Rhodobacteriochlorin-13^1-(2-N^3-trimethylammoniumethyl)amide acetate (salt) [Compound 24]	–	2400	1200	–	–
Palladium 3^1-oxo-15-methoxycarbonylmethyl-Rhodobacteriochlorin-13^1-(3-aminopropyl)amide-17^3-(2,3-dihydroxypropyl)amide [Compound 60]	–	620	240	–	–
